One experiment concerns the target E. coli PBP3 (Escherichia coli (strain K12), UniProt P0AD68). As to the kind of experiment: E. coli PBP3 Bocillin-FL fluorescence polarization competition binding assay. In a few lines:
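FP competition: 1.5 μM PBP, 0.1 μM Bocillin-FL, cpd 0–1000 μM; 50 mM Hepes pH 8.0/300 mM NaCl/5% glycerol. Read 490/520 nm immediately after Bocillin-FL addition, 60 min. EC50 = cpd conc. lowering probe binding.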
(Polarisation of emitted light reports the rotation of a fluorescent probe.)

The test system of the next experiment is E. coli ATCC 25922. As to the kind of experiment: Broth microdilution MIC, E. coli ATCC 25922. It is filed as cell-based. As to conditions: Escherichia coli. In short, it runs like this:
(§1)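 Colonies from Mueller Hinton II agar were grown 3-5 hours at 37° C in cation-supplemented broth, adjusted by OD600, then added to 2-fold compound dilutions at 5×10^5 CFU/mL. After 16-20 hours at 37° C, MICs were scored visually.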

A further experiment relates to E. coli AG100. As to the kind of experiment: Broth microdilution MIC, E. coli AG100 (wild-type parent). The note with it: Escherichia coli; wild-type parent E. coli AG100, broth microdilution; read-out: MIC E. coli AG100. It is filed as cell-based. In short, it runs like this:
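Broth microdilution in cation-supplemented Mueller-Hinton broth, 2-fold serial compound dilutions, inoculum 5×10^5 CFU/mL from 3-5 h log culture.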

Another experiment has as its system E. coli 901C. Description: microbe, parasite or virus in culture. In kind it is cell-based. As to conditions: Escherichia coli; hyper-permeable E. coli 901C, broth microdilution; read-out: MIC E. coli 901C. In a few lines:
as §1
(Dilution methods test growth across graded concentrations, often in twofold steps.)

Another experiment deals with E. coli AG100A. As to the kind of experiment: microbe, parasite or virus in culture. It is filed as cell-based. As to conditions: Escherichia coli, read-out: MIC E. coli AG100A. In short, it runs like this: as §1
The next experiment deals with E. coli D22. As to the kind of experiment: microbe, parasite or virus in culture. It is filed as cell-based. As to conditions: Escherichia coli; hyper-permeable E. coli D22, broth microdilution; read-out: MIC E. coli D22. In a few lines: as §1
Another experiment relates to K. pneumoniae SI-117. Description: microbe, parasite or virus in culture. The note with it: Klebsiella pneumoniae, SI117, read-out: MIC K. pneumoniae SI-117. In kind it is cell-based. In short, it runs like this:
as §1

In a further experiment the test system is K. pneumoniae UMM. As to the kind of experiment: microbe, parasite or virus in culture. In kind it is cell-based. As to conditions: Klebsiella pneumoniae; K. pneumoniae UMM producing SHV-5 and KPC-2; read-out: MIC K. pneumoniae UMM. In short, it runs like this:
as §1

For the next experiment, the system named is K. pneumoniae 848844. Description: microbe, parasite or virus in culture. It is filed as cell-based, Klebsiella pneumoniae. As to conditions: Klebsiella pneumoniae; K. pneumoniae 848844 producing SHV-11 and KPC-2; read-out: MIC K. pneumoniae 848844. In a few lines: as §1
For experiment [1], the system named is N. gonorrhoeae ATCC 49226. As to the kind of experiment: Liquid broth MIC, N. gonorrhoeae ATCC 49226. In kind it is cell-based. As to conditions: Neisseria gonorrhoeae, ATCC49226; N. gonorrhoeae ATCC 49226, liquid broth; read-out: Minimum Inhibitory Concentration, N. gonorrhoeae ATCC 49226. As to the method: (§2) Additional antibacterial testing of the series was performed in wild-type reference strains of N. gonorrhoeae (ATCC 49226, FA1090, WHO F and FA19). Liquid broth-based assays were used for antibacterial testing of PBP inhibitors in Neisseria gonorrhoeae. Briefly, cryo-preserved bacterial cultures of clinical strains are streaked for isolation on GC Base agar (BD #228950 at 36 g/L autoclaved at 121° C. for 20 minutes to sterilize) with 1% Kellogg's supplement (40 g glucose, 0.5 g glutamine, 0.05 g ferric nitrate and 2 mg cocarboxylase per 100 mL deionized water filter sterilized through 0.2 μm syringe filters). Following incubation at 36° C. and 5% CO2 to allow growth of colonies, strains are aseptically sub-cultured from original agar plate onto 3 agar plates per strain 24 hours before inoculum preparation. 2-fold serial dilutions of test compounds are conducted in a 96 well plate with a final volume of 150 μL per well at 4/3-fold the final desired concentration. For preparation of assay inoculum, a direct suspension is prepared by aseptically swabbing all colonies from sub-cultured agar plates into culture tubes containing 2 mL of fresh GC broth with […]. After the dilution plates are set up, direct suspensions are then diluted in a cuvette containing GC broth (15 g proteose peptone 43, 1 g corn starch, 4 g dipotassium phosphate, 1 g monopotassium phosphate and 5 g sodium chloride per liter of deionized water are mixed on a stir plate for 20 minutes, pH adjusted to 7.2+/−0.2 pH units with 1 N HCl, centrifuged at 10,000×g for 20 minutes to pellet undissolved corn starch and then autoclaved at 121° C. for 20 minutes to sterilize) and the optical density is measured at 600 nm. Inocula are diluted such that 50 μL of this culture in […] results in a starting bacterial concentration of 5×10^5 CFU/mL when added to the dilution plates. The plates are incubated 40-42 hours at 36° C. and 5% CO2. The MIC is read visually as the lowest concentration well with no bacterial growth.

In the next experiment the test system is N. gonorrhoeae FA1090. Description: Liquid broth MIC, N. gonorrhoeae FA1090. In kind it is cell-based. The note with it: Neisseria gonorrhoeae; N. gonorrhoeae FA1090, liquid broth; read-out: Minimum Inhibitory Concentration, N. gonorrhoeae FA1090. As to the method: as §2
The next experiment relates to N. gonorrhoeae WHO F. Description: Liquid broth MIC, N. gonorrhoeae WHO F. It is filed as cell-based. As to conditions: Neisseria gonorrhoeae; N. gonorrhoeae WHO F, liquid broth; read-out: Minimum Inhibitory Concentration, N. gonorrhoeae WHO F. As to the method:
as §2

Another experiment has as its system N. gonorrhoeae FA19. Description: Liquid broth MIC, N. gonorrhoeae FA19. As to conditions: Neisseria gonorrhoeae; N. gonorrhoeae FA19, liquid broth; read-out: Minimum Inhibitory Concentration, N. gonorrhoeae FA19. In kind it is cell-based. As to the method: as §2
Setting [2] is: ATCC25922, E. coli ATCC 25922, broth microdilution, read-out: MIC E. coli 25922.

A word on the EC50: it is the concentration giving half of the maximal effect. High values mean weaker potency, low ones greater potency.

In brackets after ≈: the same amount, converted by molar mass. Read-outs that look alike come from different tables or passages of the source.

Sequence of E. coli PBP3 (P0AD68 whole entry): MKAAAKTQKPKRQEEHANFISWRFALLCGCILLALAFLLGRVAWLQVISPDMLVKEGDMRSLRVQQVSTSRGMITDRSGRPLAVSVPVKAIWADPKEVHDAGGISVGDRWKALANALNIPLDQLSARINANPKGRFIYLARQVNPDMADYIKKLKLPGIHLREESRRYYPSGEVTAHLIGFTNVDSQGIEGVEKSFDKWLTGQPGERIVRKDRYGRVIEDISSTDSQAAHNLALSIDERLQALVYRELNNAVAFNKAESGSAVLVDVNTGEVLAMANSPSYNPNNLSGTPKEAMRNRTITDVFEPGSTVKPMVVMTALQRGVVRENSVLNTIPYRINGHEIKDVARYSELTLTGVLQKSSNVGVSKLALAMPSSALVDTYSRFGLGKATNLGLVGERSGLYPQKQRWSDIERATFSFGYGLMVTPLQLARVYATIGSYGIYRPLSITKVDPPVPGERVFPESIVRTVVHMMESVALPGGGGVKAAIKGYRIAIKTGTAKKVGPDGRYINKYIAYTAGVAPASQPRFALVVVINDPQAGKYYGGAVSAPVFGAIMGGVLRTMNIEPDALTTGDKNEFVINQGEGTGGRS

Consider `NC(=O)c1ccc(C(NC(=O)N2CCN(CCF)C(=O)C2=O)C(=O)N[C@H]2Cc3cccc(C(=O)O)c3OB2O)cc1` (stereo partly drawn) [Example 187, (3R)-3-(2-(4-carbamoylphenyl)-2-(4-(2-fluoroethyl)-2,3-dioxopiperazine-1-carboxamido)acetamido)-2-hydroxy-3,4-dihydro-2H-benzo[e][1,2]oxaborinine-8-carboxylic acid], for which the EC50 at E. coli PBP3 fell in the range of 30 to 500 µM. Also, the MIC was 32 to 64 µg/mL in the experiment with E. coli ATCC 25922 (setting [2]); 8 to 16 µg/mL with E. coli AG100; < 0.25 µg/mL in the experiment with E. coli 901C; 2 to 4 µg/mL with E. coli AG100A; 0.5 to 1 µg/mL in the experiment with E. coli D22; > 128 µg/mL in the experiment on K. pneumoniae SI-117. In addition, the MIC is 32 to 64 µg/mL with K. pneumoniae UMM; > 128 µg/mL in the experiment on K. pneumoniae 848844; 0.25 to 0.5 µg/mL (≈ 0.439 to 0.878 µM) in [1]; < 0.125 µg/mL with N. gonorrhoeae FA1090; < 0.125 µg/mL with N. gonorrhoeae WHO F; 0.25 to 0.5 µg/mL (≈ 0.439 to 0.878 µM) with N. gonorrhoeae FA19.

Take `CCN1CCN(C(=O)N[C@@H](C(=O)N[C@H]2Cc3cccc(C(=O)O)c3OB2O)c2ccc(O)c(O)c2)C(=O)C1=O` [Example 39, (R)-3-((R)-2-(3,4-dihydroxyphenyl)-2-(4-ethyl-2,3-dioxopiperazine-1-carboxamido)acetamido)-2-hydroxy-3,4-dihydro-2H-benzo[e][1,2]oxaborinine-8-carboxylic acid]: the MIC in the experiment with E. coli ATCC 25922 (setting [2]) lay in the range of 8 to 16 µg/mL; with E. coli AG100, 8 to 16 µg/mL; in the experiment with E. coli 901C, 0.5 to 1 µg/mL; in the experiment with E. coli AG100A, 2 to 4 µg/mL; with K. pneumoniae UMM, 8 to 16 µg/mL; in [1] it was 1 to 2 µg/mL (≈ 1.85 to 3.7 µM). Besides, the MIC in the experiment with N. gonorrhoeae FA1090 was < 0.125 µg/mL; in the experiment on N. gonorrhoeae WHO F, 0.25 to 0.5 µg/mL (≈ 0.463 to 0.925 µM); with N. gonorrhoeae FA19, 1 to 2 µg/mL (≈ 1.85 to 3.7 µM).

Regarding `CCN1CCN(C(=O)NC(C(=O)N[C@H]2Cc3cccc(C(=O)O)c3OB2O)c2ncc(OC(C)=O)cc2F)C(=O)C1=O` (stereo partly drawn) [Example 207, (3R)-3-(2-(5-acetoxy-3-fluoropyridin-2-yl)-2-(4-ethyl-2,3-dioxopiperazine-1-carboxamido)acetamido)-2-hydroxy-3,4-dihydro-2H-benzo[e][1,2]oxaborinine-8-carboxylic acid], the MIC in the experiment on E. coli ATCC 25922 (ATCC25922, read-out: MIC E. coli 25922) was 8 to 16 µg/mL; in the experiment on E. coli AG100 it was 8 to 16 µg/mL; in the experiment with E. coli 901C, < 0.25 µg/mL; in the experiment on E. coli AG100A it was 0.5 to 1 µg/mL; with E. coli D22, 0.5 to 1 µg/mL; with K. pneumoniae SI-117 it was 32 to 64 µg/mL. For the same molecule, the MIC in the experiment with K. pneumoniae UMM is 8 to 16 µg/mL; in the experiment on K. pneumoniae 848844, 32 to 64 µg/mL; in experiment [1], 0.25 to 0.5 µg/mL (≈ 0.427 to 0.854 µM); with N. gonorrhoeae FA1090, < 0.125 µg/mL; in the experiment with N. gonorrhoeae WHO F, < 0.125 µg/mL; in the experiment with N. gonorrhoeae FA19 it was 1 to 2 µg/mL (≈ 1.71 to 3.42 µM).

`CCN1CCN(C(=O)NC(C(=O)N[C@H]2Cc3ccc(F)c(C(=O)O)c3OB2O)c2cnc(N)s2)C(=O)C1=O` (stereo partly drawn) [Example 152, (3R)-3-(2-(2-aminothiazol-5-yl)-2-(4-ethyl-2,3-dioxopiperazine-1-carboxamido)acetamido)-7-fluoro-2-hydroxy-3,4-dihydro-2H-benzo[e][1,2]oxaborinine-8-carboxylic acid]: the concentration for a half-maximal effect (EC50) at E. coli PBP3 lay in the range of 30 to 500 µM. In addition, the MIC in experiment [1] lay within 1 to 2 µg/mL (≈ 1.82 to 3.65 µM); with N. gonorrhoeae FA1090, 0.25 to 0.5 µg/mL (≈ 0.456 to 0.912 µM); with N. gonorrhoeae WHO F it was 0.25 to 0.5 µg/mL (≈ 0.456 to 0.912 µM); in the experiment on N. gonorrhoeae FA19, 1 to 2 µg/mL (≈ 1.82 to 3.65 µM).

At E. coli PBP3, `CCN1CCN(C(=O)NC(C(=O)N[C@H]2Cc3ccc(Cl)c(C(=O)O)c3OB2O)c2csc(N)n2)C(=O)C1=O` (stereo partly drawn) [Example 215, (3R)-3-(2-(2-aminothiazol-4-yl)-2-(4-ethyl-2,3-dioxopiperazine-1-carboxamido)acetamido)-7-chloro-2-hydroxy-3,4-dihydro-2H-benzo[e][1,2]oxaborinine-8-carboxylic acid] registered an EC50 of 30 to 500 µM. The MIC in experiment [1] was in the range of 4 to 8 µg/mL (≈ 7.08 to 14.2 µM); in the experiment with N. gonorrhoeae FA1090, 1 to 2 µg/mL (≈ 1.77 to 3.54 µM); in the experiment on N. gonorrhoeae WHO F, 0.25 to 0.5 µg/mL (≈ 0.443 to 0.885 µM); in the experiment on N. gonorrhoeae FA19 it was 4 to 8 µg/mL (≈ 7.08 to 14.2 µM).
